# Experimental data published in the supplement of paper PMC10307832.
# Assays:
# Assay in all cases: relative viability (nuclei count vs DMSO), 5 days (fraction); higher = more cells survive
# [1] = compound: C1CSC2=C(C(=O)N1)SC3=C2C=C(C=C3)O [kb NB 142-70] + CC1(C)CCC(c2ccc(Cl)cc2)=C(CN2CCN(c3ccc(C(=O)NS(=O)(=O)c4ccc(N[C@H](CCN5CCOCC5)CSc5ccccc5)c(S(=O)(=O)C(F)(F)F)c4)cc3)CC2)C1 [Navitoclax] (partner 0.5 µM)
# How it was run: (§1)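 Lung cancer cell lines were pin-tool dosed in 1536-well plates on the day after seeding, with either a lone drug or a fixed anchor-drug dose plus five library-drug doses (not always all listed) in √10 steps. Nuclei were counted on 4× images after 5 days. Relative viability is the ratio of treated-well to vehicle-well nuclei counts, with each value a median of duplicate plates.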
# [2] = compound: C1CSC2=C(C(=O)N1)SC3=C2C=C(C=C3)O [kb NB 142-70] + CS(=O)(=O)N1CCN(Cc2cc3nc(-c4cccc5[nH]ncc45)nc(N4CCOCC4)c3s2)CC1 [Pictilisib] (partner 1 µM)
# How it was run: as §1
# [3] = compound: C1CSC2=C(C(=O)N1)SC3=C2C=C(C=C3)O [kb NB 142-70] + N=C(N)NC(=N)NCCc1ccccc1 [Phenformin] (partner 250 µM)
# How it was run: as §1
# [4] = compound: NCC(=O)Nc1ccc(-n2nc(C(F)(F)F)cc2-c2ccc3c(ccc4ccccc43)c2)cc1 + CCNC(=O)c1noc(-c2cc(C(C)C)c(O)cc2O)c1-c1ccc(CN2CCOCC2)cc1 [Luminespib] (partner 0.01 µM)
# How it was run: as §1
# [5] = compound: NCC(=O)Nc1ccc(-n2nc(C(F)(F)F)cc2-c2ccc3c(ccc4ccccc43)c2)cc1 + Cc1nc(NC(=O)N2CCC[C@H]2C(N)=O)sc1-c1ccnc(C(C)(C)C(F)(F)F)c1 [Alpelisib] (partner 2 µM)
# How it was run: as §1
Cell Line,relative viability ([1]; first compound 0.1 µM),relative viability ([1]; first compound 1 µM),relative viability ([1]; first compound 3.162 µM),relative viability ([2]; first compound 0.1 µM),relative viability ([2]; first compound 1 µM),relative viability ([2]; first compound 3.162 µM),relative viability ([3]; first compound 0.1 µM),relative viability ([3]; first compound 1 µM),relative viability ([3]; first compound 3.162 µM),relative viability ([4]; first compound 0.02 µM),relative viability ([4]; first compound 0.06325 µM),relative viability ([4]; first compound 0.2 µM),relative viability ([4]; first compound 0.6325 µM),relative viability ([4]; first compound 2 µM),relative viability ([5]; first compound 0.02 µM),relative viability ([5]; first compound 0.06325 µM),relative viability ([5]; first compound 0.2 µM),relative viability ([5]; first compound 0.6325 µM),relative viability ([5]; first compound 2 µM)
NCI-H1734,0.794,0.706,0.431,0.429,0.432,0.363,0.371,0.346,0.267,0.201,0.213,0.181,0.24,0.187,0.748,0.759,0.751,0.671,0.775
NCI-H1755,0.996,1.01,1.05,0.462,0.504,0.431,0.586,0.587,0.638,0.449,0.621,0.305,0.426,0.541,0.913,0.93,0.917,0.884,0.955
NCI-H1792,0.604,0.619,0.644,0.323,0.269,0.396,,0.297,0.392,0.337,0.583,0.552,0.585,0.484,0.67,0.859,0.77,0.751,0.736
NCI-H1793,0.45,0.455,0.24,0.313,0.379,0.386,0.285,0.406,0.42,0.398,0.155,0.18,0.192,0.213,0.682,0.734,0.72,0.666,0.736
NCI-H1915,0.793,0.739,0.519,1.01,0.889,0.905,0.365,0.359,0.258,0.817,0.756,0.779,0.815,0.769,1.08,1.08,1.13,1.02,1.04
NCI-H1944,1.07,1.05,0.973,0.358,0.375,0.41,0.202,0.205,0.2,0.667,0.71,0.787,0.715,0.75,0.865,0.833,0.793,0.818,0.87
NCI-H1975,1.14,1.15,0.761,0.263,0.264,0.178,0.394,0.366,0.235,0.125,0.29,0.236,0.278,0.247,0.668,0.64,0.652,0.677,0.693
NCI-H1993,0.941,0.82,0.799,0.917,0.787,0.649,0.567,0.488,0.549,0.887,0.88,0.901,0.784,0.957,0.731,0.654,0.612,0.621,0.762
NCI-H2009,1.13,1.22,0.889,0.857,0.814,0.564,0.477,0.547,0.429,1.1,0.932,1.09,1.03,1.03,1.21,1.11,1.19,1.1,1.16
NCI-H2023,0.983,1,0.644,0.258,0.207,0.227,0.382,0.44,0.391,0.681,0.906,0.972,0.739,0.758,0.606,0.625,0.609,0.577,0.596
NCI-H2085,1.18,1.05,0.738,0.486,0.53,0.398,0.706,0.756,0.371,0.537,0.473,0.466,0.445,0.472,0.963,0.978,0.943,0.972,0.965
NCI-H2087,1.06,1.11,0.771,0.905,0.75,0.576,0.432,0.555,0.411,0.151,0.19,0.214,0.138,0.196,1.14,0.82,1.06,1.16,0.945
NCI-H2126,0.853,0.843,0.849,0.519,0.479,0.515,0.525,0.507,0.551,0.904,0.981,0.871,0.942,0.943,0.784,0.774,0.724,0.765,0.788
NCI-H2170,0.564,0.674,0.432,0.299,0.275,0.227,0.429,0.405,0.395,0.738,0.7,0.552,0.75,0.616,0.782,0.716,0.823,0.886,0.88
NCI-H2228,0.853,0.992,0.244,0.494,0.225,0.183,0.263,0.317,0.178,0.144,0.16,0.177,0.154,0.16,0.785,0.84,0.669,0.689,0.921
NCI-H2347,0.867,0.77,0.608,0.874,0.659,0.324,0.412,0.349,0.381,0.427,0.634,0.7,0.686,0.7,1.04,1.03,1.18,1.15,1.12
